Results taken from ChEMBL document CHEMBL1130889, “The synthesis and biological evaluation of a novel series of indole PDE4 inhibitors I” (Bioorg Med Chem Lett, 1998).
pIC50: −log10 of the molar value.

Assays:
[1] = target: Phosphodiesterase 4 (Cavia porcellus); assay: Inhibitory activity against Phosphodiesterase type IV (PDE4) obtained from guinea-pig macrophage was evaluated
[2] = tested on: PBMC; assay: Inhibition of tumor necrosis factor-alpha release from activated human monocyte cells.; assay type: functional, cell-based
[3] = tested on: PBMC; assay: Inhibition of tumor necrosis factor-alpha release from activated human monocyte cells in the presence of RP73401.; assay type: functional, cell-based
[4] = tested on: Mus musculus; assay: Inhibition of LPS-induced tumor necrosis factor-alpha (TNF-alpha) production in mice at 50 mg/kg; assay type: functional
[5] = target: Phosphodiesterase 4 (Cavia porcellus); assay: Binding affinity against PDE4 was determined using [3H]- rolipram in guinea pig brain membrane binding assay
[6] = tested on: PBMC; assay: Inhibition of tumor necrosis factor-alpha release from activated human monocyte cells at […]; assay type: functional, cell-based
[7] = Area under the curve was evaluated in mice after intravenous administration; assay type: ADME, organism-based; details: mouse, in vivo
[8] = Area under the curve was evaluated in mice after oral administration; assay type: ADME, organism-based; details: mouse, in vivo
[9] = Volume of distribution was evaluated in mice after intravenous administration; assay type: ADME, organism-based; details: mouse, in vivo, read-out: Vdss
[10] = Maximum time required to reach Cp max was evaluated in mice after oral administration; assay type: ADME, organism-based; details: mouse, plasma
[11] = Maximum plasma concentration was evaluated in mice after oral administration; assay type: ADME, organism-based; details: mouse, read-out: Cp max
[12] = Bioavailability was evaluated in mice after oral administration; assay type: ADME, organism-based; details: mouse, in vivo, read-out: Bioavailabiility
[13] = Terminal half life was evaluated in mice after intravenous administration; assay type: ADME, organism-based; details: mouse, in vivo
[14] = Terminal half life was evaluated in mice after oral administration; assay type: ADME, organism-based; details: mouse, in vivo
[15] = Clearance was evaluated in mice after intravenous administration; assay type: ADME, organism-based; details: mouse, in vivo
[16] = tested on: PBMC; assay: Inhibition of tumor necrosis factor-alpha release from activated human monocyte cells at 0.3 uM; assay type: functional, cell-based

Compound | IC50 [1] [µM] | pIC50 [2] | pIC50 [3] | inhibition in vivo at 50 mg/kg [4] [%] | Ki [5] [µM] | other results
Cc1c[nH]c2cc(C(=O)Nc3c(Cl)cncc3Cl)ccc12 | 0.005 |  |  |  |  | 
Cc1cn(Cc2ccc3ccccc3c2)c2cc(C(=O)Nc3c(Cl)cncc3Cl)ccc12 | 0.0052 | 7.05 | 7.98 | 0 | 0.007 | 
Cc1cn(C2CCCC2)c2cc(C(=O)Nc3c(Cl)cncc3Cl)ccc12 | 0.015 |  | 8.52 |  | 0.374 | pIC50 [6]: 7.52
Cc1cn(CCCc2ccccc2)c2cc(C(=O)Nc3c(Cl)cncc3Cl)ccc12 | 0.025 | 6.77 | 8.52 | 17 | 0.041 | 
Cc1cn(CCC2CCCCC2)c2cc(C(=O)Nc3c(Cl)cncc3Cl)ccc12 | 0.0032 | 8.70 | 9.15 | 0 | 0.021 | 
COc1ccc(Cn2cc(C)c3ccc(C(=O)Nc4c(Cl)cncc4Cl)cc32)cc1 |  | 7.22 | 8.52 | 20 |  | AUC [7]: 678 ng·h/mL; AUC [8]: 25.3 ng·h/mL; Vd [9]: 2.4 L/kg; Tmax [10]: 0.5 h; Cmax [11]: 9.9 ng/mL; bioavailability [12]: 3.7%; half-life [13]: 2.6 h; half-life [14]: 1.7 h; clearance [15]: 24.7 mL/min/kg
Cc1ccc(S(=O)(=O)n2cc(Cc3ccccc3)c3ccc(C(=O)Nc4c(Cl)cncc4Cl)cc32)cc1 | > 10 |  |  |  | > 3.745 | 
Cc1cn(Cc2cccc([N+](=O)[O-])c2)c2cc(C(=O)Nc3c(Cl)cncc3Cl)ccc12 | 0.052 | 7.47 | 8.70 | 16 | 0.075 | 
Cc1cn(Cc2ccc(C(N)=O)cc2)c2cc(C(=O)Nc3c(Cl)cncc3Cl)ccc12 | 0.3 | 7.28 | > 9.00 | 0 | 0.22 | 
Cc1ccc(S(=O)(=O)n2cc(C)c3ccc(C(=O)Nc4c(Cl)cncc4Cl)cc32)cc1 | 0.045 | 6.52 | 8.52 | 0 | 0.712 | 
CCc1cn(S(=O)(=O)c2ccc(C)cc2)c2cc(C(=O)Nc3c(Cl)cncc3Cl)ccc12 | 2.9 |  |  |  | > 3.745 | 
COc1ccccc1Cn1cc(C)c2ccc(C(=O)Nc3c(Cl)cncc3Cl)cc21 | 0.08 |  |  |  | 0.054 | 
Cc1cn(CCCC2CCCCC2)c2cc(C(=O)Nc3c(Cl)cncc3Cl)ccc12 | 0.22 | 7.92 | 9.15 | 27 | 0.187 | 
COc1cccc(Cn2cc(C)c3ccc(C(=O)Nc4c(Cl)cncc4Cl)cc32)c1 | 0.06 |  |  |  | 0.075 | 
Cc1cn(CCc2ccccc2)c2cc(C(=O)Nc3c(Cl)cncc3Cl)ccc12 | 0.07 | 8.10 | 9.05 |  | 0.28 | 
Cc1cn(Cc2ccccc2)c2cc(C(=O)Nc3c(Cl)cncc3Cl)ccc12 | 0.018 | 7.64 | 8.40 | 0 | 0.135 | 
CCCCCCCn1cc(C)c2ccc(C(=O)Nc3c(Cl)cncc3Cl)cc21 | 0.025 | 7.96 | 8.52 | 22 | 0.066 | 
Cc1cn(CCN2CCOCC2)c2cc(C(=O)Nc3c(Cl)cncc3Cl)ccc12 | 0.38 |  | 8.52 |  | 0.172 | pIC50 [16]: 7.55
Cc1cn(CC2CCCCC2)c2cc(C(=O)Nc3c(Cl)cncc3Cl)ccc12 | 0.1 | 6.70 | 8.10 | 0 | 0.12 | 
Cc1nc(Cn2cc(C)c3ccc(C(=O)Nc4c(Cl)cncc4Cl)cc32)cs1 | 0.042 | 7.62 | 8.82 | 0 | 0.024 | 
Cc1cn(Cc2ccc(S(C)(=O)=O)cc2)c2cc(C(=O)Nc3c(Cl)cncc3Cl)ccc12 | 0.2 | 6.87 | < 9.00 | 0 | 0.3 | 
Cc1cn(Cc2cccc3ccccc23)c2cc(C(=O)Nc3c(Cl)cncc3Cl)ccc12 | 0.046 | 5.89 | 8.00 |  | 0.06 | 
Cc1noc(C)c1Cn1cc(C)c2ccc(C(=O)Nc3c(Cl)cncc3Cl)cc21 | 0.187 | 6.24 | 7.74 | 0 | 0.075 | 
COc1ccc(C(=O)Nc2c(Cl)cncc2Cl)cc1OC1CCCC1 |  |  |  |  |  | ED50 [4]: 10 mg/kg
